Assay [1] deals with T1, mouse HCN1 (mHCN1) (Mus musculus, UniProt O88704).
T1 construct: full-length wild-type cDNA in pGH19, cRNA expressed in Xenopus laevis oocytes; homotetrameric channel
The assay can be described thus: two-electrode voltage clamp, Xenopus oocytes, Hill fit of current. Type of assay: cell-based. For orientation: In two-electrode clamp one electrode senses voltage and the other passes current.

Assay [2] addresses T1, mouse HCN1 (mHCN1). The description is as above. Format: cell-based. As to conditions: read-out: relative IC50.

This note sets out measurements from publication PMC9019169, “Direct Regulation of Hyperpolarization-Activated Cyclic-Nucleotide Gated (HCN1) Channels by Cannabinoids” (Frontiers in Molecular Neuroscience, 2022).

T1 sequence (O88704 whole entry): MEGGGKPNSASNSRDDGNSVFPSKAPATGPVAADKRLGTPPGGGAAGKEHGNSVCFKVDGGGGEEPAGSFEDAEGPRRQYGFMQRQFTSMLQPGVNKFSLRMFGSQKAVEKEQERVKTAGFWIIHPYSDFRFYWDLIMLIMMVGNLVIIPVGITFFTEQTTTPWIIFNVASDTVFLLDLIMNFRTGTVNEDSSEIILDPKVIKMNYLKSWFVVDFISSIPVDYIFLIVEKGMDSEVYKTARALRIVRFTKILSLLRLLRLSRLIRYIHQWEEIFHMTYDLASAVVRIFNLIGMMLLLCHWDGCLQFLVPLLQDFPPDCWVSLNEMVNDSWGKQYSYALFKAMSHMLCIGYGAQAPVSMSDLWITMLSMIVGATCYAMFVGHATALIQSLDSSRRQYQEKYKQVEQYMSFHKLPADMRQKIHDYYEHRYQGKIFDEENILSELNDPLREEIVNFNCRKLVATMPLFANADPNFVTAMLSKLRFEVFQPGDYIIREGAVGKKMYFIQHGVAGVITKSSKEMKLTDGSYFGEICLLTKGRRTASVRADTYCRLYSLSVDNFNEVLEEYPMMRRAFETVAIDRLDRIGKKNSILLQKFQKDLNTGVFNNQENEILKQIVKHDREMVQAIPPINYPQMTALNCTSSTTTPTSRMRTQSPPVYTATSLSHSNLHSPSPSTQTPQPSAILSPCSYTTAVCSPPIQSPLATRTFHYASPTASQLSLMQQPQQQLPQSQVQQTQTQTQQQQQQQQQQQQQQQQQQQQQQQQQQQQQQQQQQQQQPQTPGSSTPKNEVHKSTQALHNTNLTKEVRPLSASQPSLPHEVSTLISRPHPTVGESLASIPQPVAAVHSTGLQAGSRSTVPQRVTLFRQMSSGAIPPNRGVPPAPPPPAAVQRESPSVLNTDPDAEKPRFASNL

By EC50 is commonly meant the concentration that produces a half-maximal response. The low end stands for an effect from little substance, the high end for a need for much substance. For `C=C(C)[C@@H]1CCC(C)=C[C@H]1c1c(O)cc(CCCCC)cc1O` [cannabidiol], a half-maximal response at mouse HCN1 (mHCN1) [1] (EC50) required 28.5 µM.
A word on the IC50: it is the concentration needed to halve the response being measured. On to `CCCCCc1cc(O)c2c(c1)OC(C)(C)[C@@H]1CCC(C)=C[C@@H]21` [Δ9-tetrahydrocannabinol], for which the IC50 at mouse HCN1 (mHCN1) [2] amounted to 21.8 µM.
